Reference: PubChem BioAssay AID258 (DTP/NCI, 2004)
Where “and” joins values, the source holds several entries; their conditions need not be identical. Identical values can stand only once. Inconclusive results and toxic doses are left out.

Tested on: CD2F1 mice, L1210 leukemia sc, survival T/C
Experiment: NCI In Vivo Anticancer Drug Screen. Data for tumor model L1210 Leukemia (subcutaneous) in CD2F1 (CDF1) mice
Conditions: higher = longer survival
Procedure, shortened: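 Antitumor activity is scored in tumor-bearing mice by comparing survival or tumor size of treated animals against vehicle-treated controls, reported as T/C.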

CN(Cc1cnc2nc(N)nc(N)c2n1)c1ccc(C(=O)N[C@@H](CCC(=O)O)C(=O)O)cc1
T/C (endpoint: mean survival time, dose: 1.08 mg/kg/injection, schedule: Q01DX009 (sc), vehicle: other): 170 % of control | T/C (endpoint: mean survival time, dose: 1.8 mg/kg/injection, schedule: Q01DX009 (sc), vehicle: other): 158 % of control | T/C (endpoint: mean survival time, dose: 3.0 mg/kg/injection, schedule: Q01DX009 (sc), vehicle: other): 168 % of control | T/C (endpoint: mean survival time, dose: 5.0 mg/kg/injection, schedule: Q01DX017 (sc), vehicle: other): 124 % of control | T/C (endpoint: median survival time, dose: 0.08 mg/kg/injection, schedule: Q## X Z (sc), vehicle: other): 155 % of control | T/C (endpoint: median survival time, dose: 0.1 mg/kg/injection, schedule: Q#A X Z (oral), vehicle: other): 104 % of control | T/C (endpoint: median survival time, dose: 0.1 mg/kg/injection, schedule: Q#A X Z (sc), vehicle: other): 122 % of control | T/C (endpoint: median survival time, dose: 0.14 mg/kg/injection, schedule: Q## X Z (sc), vehicle: other): 155 % of control | T/C (endpoint: median survival time, dose: 0.16 mg/kg/injection, schedule: Q#A X Z (oral), vehicle: other): 109 % of control | T/C (endpoint: median survival time, dose: 0.23 mg/kg/injection, schedule: Q#A X Z (sc), vehicle: other): 122 % of control | T/C (endpoint: median survival time, dose: 0.25 mg/kg/injection, schedule: Q01DX Z (sc), vehicle: other): 112 % of control and 116 % of control | T/C (endpoint: median survival time, dose: 0.27 mg/kg/injection, schedule: Q01DX Z (oral), vehicle: other): 109 % of control | T/C (endpoint: median survival time, dose: 0.27 mg/kg/injection, schedule: Q#A X Z (oral), vehicle: other): 122 % of control | T/C (endpoint: median survival time, dose: 0.3 mg/kg/injection, schedule: Q01DX Z (sc), vehicle: sodium bicarbonate): 111 % of control | T/C (endpoint: median survival time, dose: 0.38 mg/kg/injection, schedule: Q01DX009 (ip), vehicle: sodium bicarbonate): 108 % of control | T/C (endpoint: median survival time, dose: 0.39 mg/kg/injection, schedule: Q01DX Z (ip), vehicle: other): 115 % of control | T/C (endpoint: median survival time, dose: 0.39 mg/kg/injection, schedule: Q01DX Z (iv), vehicle: other): 105 % of control | T/C (endpoint: median survival time, dose: 0.39 mg/kg/injection, schedule: Q01DX Z (oral), vehicle: other): 100 % of control | T/C (endpoint: median survival time, dose: 0.39 mg/kg/injection, schedule: Q02DX Z (sc), vehicle: other): 111 % of control | T/C (endpoint: median survival time, dose: 0.45 mg/kg/injection, schedule: Q01DX Z (oral), vehicle: other): 100 % of control | T/C (endpoint: median survival time, dose: 0.45 mg/kg/injection, schedule: Q#A X Z (sc), vehicle: other): 159 % of control | T/C (endpoint: median survival time, dose: 0.47 mg/kg/injection, schedule: Q01DX Z (oral), vehicle: other): 111 % of control | T/C (endpoint: median survival time, dose: 0.48 mg/kg/injection, schedule: Q01DX Z (oral), vehicle: other): 100 % of control | T/C (endpoint: median survival time, dose: 0.5 mg/kg/injection, schedule: Q01DX009 (ip), vehicle: sodium bicarbonate): 112 % of control | T/C (endpoint: median survival time, dose: 0.62 mg/kg/injection, schedule: Q01DX Z (sc), vehicle: other): 160 % of control | T/C (endpoint: median survival time, dose: 0.65 mg/kg/injection, schedule: Q01DX009 (sc), vehicle: other): 152 % of control | T/C (endpoint: median survival time, dose: 0.65 mg/kg/injection, schedule: Q01DX009 (sc), vehicle: sodium bicarbonate): 150 % of control | T/C (endpoint: median survival time, dose: 0.65 mg/kg/injection, schedule: Q01DX Z (iv), vehicle: other): 111 % of control | T/C (endpoint: median survival time, dose: 0.65 mg/kg/injection, schedule: Q01DX Z (oral), vehicle: other): 105 % of control | T/C (endpoint: median survival time, dose: 0.65 mg/kg/injection, schedule: Q02DX Z (sc), vehicle: other): 105 % of control | T/C (endpoint: median survival time, dose: 0.65 mg/kg/injection, schedule: Q## X Z (sc), vehicle: other): 122 % of control | T/C (endpoint: median survival time, dose: 0.65 mg/kg/injection, schedule: Q#A X Z (sc), vehicle: other): 161 % of control | T/C (endpoint: median survival time, dose: 0.75 mg/kg/injection, schedule: Q01DX009 (ip), vehicle: sodium bicarbonate): 113 % of control | T/C (endpoint: median survival time, dose: 0.75 mg/kg/injection, schedule: Q01DX Z (ip), vehicle: water): 175 % of control | T/C (endpoint: median survival time, dose: 0.76 mg/kg/injection, schedule: Q01DX Z (oral), vehicle: other): 122 % of control | T/C (endpoint: median survival time, dose: 0.76 mg/kg/injection, schedule: Q#A X Z (oral), vehicle: other): 150 % of control | T/C (endpoint: median survival time, dose: 0.79 mg/kg/injection, schedule: Q01DX Z (oral), vehicle: other): 105 % of control | T/C (endpoint: median survival time, dose: 1.08 mg/kg/injection, schedule: Q01DX009 (sc), vehicle: sodium bicarbonate): 171 % of control | T/C (endpoint: median survival time, dose: 1.08 mg/kg/injection, schedule: Q01DX Z (oral), vehicle: other): 110 % of control | T/C (endpoint: median survival time, dose: 1.25 mg/kg/injection, schedule: Q01DX Z (sc), vehicle: other): 180 % of control | T/C (endpoint: median survival time, dose: 1.26 mg/kg/injection, schedule: Q01DX Z (oral), vehicle: other): 168 % of control and 181 % of control | T/C (endpoint: median survival time, dose: 1.26 mg/kg/injection, schedule: Q01DX Z (sc), vehicle: other): 181 % of control | T/C (endpoint: median survival time, dose: 1.26 mg/kg/injection, schedule: Q#A X Z (oral), vehicle: other): 118 % of control | T/C (endpoint: median survival time, dose: 1.3 mg/kg/injection, schedule: Q01DX Z (oral), vehicle: other): 166 % of control | T/C (endpoint: median survival time, dose: 1.31 mg/kg/injection, schedule: Q01DX Z (oral), vehicle: other): 111 % of control | T/C (endpoint: median survival time, dose: 1.4 mg/kg/injection, schedule: Q01DX Z (sc), vehicle: sodium bicarbonate): 183 % of control | T/C (endpoint: median survival time, dose: 1.8 mg/kg/injection, schedule: Q01DX009 (sc), vehicle: other): 161 % of control | T/C (endpoint: median survival time, dose: 1.8 mg/kg/injection, schedule: Q01DX009 (sc), vehicle: sodium bicarbonate): 174 % of control and 177 % of control | T/C (endpoint: median survival time, dose: 1.8 mg/kg/injection, schedule: Q01DX Z (ip), vehicle: other): 175 % of control | T/C (endpoint: median survival time, dose: 1.8 mg/kg/injection, schedule: Q## X Z (sc), vehicle: other): 111 % of control | T/C (endpoint: median survival time, dose: 2.0 mg/kg/injection, schedule: Q01DX Z (sc), vehicle: other): 175 % of control and 177 % of control and 183 % of control | T/C (endpoint: median survival time, dose: 2.08 mg/kg/injection, schedule: Q01DX Z (sc), vehicle: other): 170 % of control | T/C (endpoint: median survival time, dose: 2.1 mg/kg/injection, schedule: Q01DX Z (oral), vehicle: other): 163 % of control | T/C (endpoint: median survival time, dose: 2.1 mg/kg/injection, schedule: Q01DX Z (sc), vehicle: other): 168 % of control | T/C (endpoint: median survival time, dose: 2.33 mg/kg/injection, schedule: Q01DX Z (sc), vehicle: sodium bicarbonate): 155 % of control | T/C (endpoint: median survival time, dose: 2.5 mg/kg/injection, schedule: Q01DX Z (sc), vehicle: other): 155 % of control | T/C (endpoint: median survival time, dose: 3.0 mg/kg/injection, schedule: Q01DX009 (ip), vehicle: saline with Tween-80): 173 % of control | T/C (endpoint: median survival time, dose: 3.0 mg/kg/injection, schedule: Q01DX009 (sc), vehicle: other): 179 % of control | T/C (endpoint: median survival time, dose: 3.0 mg/kg/injection, schedule: Q01DX009 (sc), vehicle: sodium bicarbonate): 183 % of control | T/C (endpoint: median survival time, dose: 3.0 mg/kg/injection, schedule: Q01DX Z (ip), vehicle: other): 150 % of control | T/C (endpoint: median survival time, dose: 3.0 mg/kg/injection, schedule: Q01DX Z (ip), vehicle: sodium bicarbonate): 105 % of control | T/C (endpoint: median survival time, dose: 3.0 mg/kg/injection, schedule: Q01DX Z (ip), vehicle: water): 120 % of control | T/C (endpoint: median survival time, dose: 3.0 mg/kg/injection, schedule: Q01DX Z (iv), vehicle: other): 155 % of control | T/C (endpoint: median survival time, dose: 3.0 mg/kg/injection, schedule: Q01DX Z (oral), vehicle: other): 170 % of control | T/C (endpoint: median survival time, dose: 3.0 mg/kg/injection, schedule: Q## X Z (sc), vehicle: other): 111 % of control | T/C (endpoint: median survival time, dose: 3.25 mg/kg/injection, schedule: Q01DX Z (sc), vehicle: other): 158 % of control | T/C (endpoint: median survival time, dose: 3.47 mg/kg/injection, schedule: Q01DX Z (sc), vehicle: other): 150 % of control | T/C (endpoint: median survival time, dose: 3.5 mg/kg/injection, schedule: Q01DX Z (sc), vehicle: other): 163 % of control | T/C (endpoint: median survival time, dose: 3.5 mg/kg/injection, schedule: Q03DX Z (oral), vehicle: other): 100 % of control | T/C (endpoint: median survival time, dose: 3.5 mg/kg/injection, schedule: Q#A X Z (oral), vehicle: other): 109 % of control | T/C (endpoint: median survival time, dose: 4.0 mg/kg/injection, schedule: Q01DX009 (ip), vehicle: saline with Tween-80): 168 % of control | T/C (endpoint: median survival time, dose: 4.0 mg/kg/injection, schedule: Q01DX009 (ip), vehicle: saline): 184 % of control | T/C (endpoint: median survival time, dose: 4.0 mg/kg/injection, schedule: Q01DX Z (sc), vehicle: other): 150 % of control and 155 % of control | T/C (endpoint: median survival time, dose: 5.0 mg/kg/injection, schedule: Q01DX009 (sc), vehicle: sodium bicarbonate): 116 % of control and 120 % of control | T/C (endpoint: median survival time, dose: 5.0 mg/kg/injection, schedule: Q01DX017 (sc), vehicle: other): 122 % of control | T/C (endpoint: median survival time, dose: 5.0 mg/kg/injection, schedule: Q## X Z (sc), vehicle: other): 111 % of control | T/C (endpoint: median survival time, dose: 5.83 mg/kg/injection, schedule: Q01DX Z (oral), vehicle: other): 118 % of control | T/C (endpoint: median survival time, dose: 5.83 mg/kg/injection, schedule: Q03DX Z (oral), vehicle: other): 100 % of control | T/C (endpoint: median survival time, dose: 8.33 mg/kg/injection, schedule: Q01DX Z (iv), vehicle: other): 120 % of control | T/C (endpoint: median survival time, dose: 8.33 mg/kg/injection, schedule: Q01DX Z (oral), vehicle: other): 150 % of control | T/C (endpoint: median survival time, dose: 8.4 mg/kg/injection, schedule: Q## X Z (sc), vehicle: other): 122 % of control | T/C (endpoint: median survival time, dose: 9.72 mg/kg/injection, schedule: Q01DX Z (oral), vehicle: other): 118 % of control | T/C (endpoint: median survival time, dose: 14.0 mg/kg/injection, schedule: Q## X Z (sc), vehicle: other): 122 % of control | T/C (endpoint: median survival time, dose: 16.2 mg/kg/injection, schedule: Q03DX Z (oral), vehicle: other): 113 % of control | T/C (endpoint: median survival time, dose: 23.0 mg/kg/injection, schedule: Q01DX001 (sc), vehicle: other): 122 % of control | T/C (endpoint: median survival time, dose: 23.0 mg/kg/injection, schedule: Q## X Z (sc), vehicle: other): 122 % of control | T/C (endpoint: median survival time, dose: 65.0 mg/kg/injection, schedule: Q07DX Z (sc), vehicle: other): 150 % of control | T/C (endpoint: median survival time, dose: 108.0 mg/kg/injection, schedule: Q01DX001 (sc), vehicle: other): 122 % of control | T/C (endpoint: median survival time, dose: 108.0 mg/kg/injection, schedule: Q07DX Z (sc), vehicle: other): 122 % of control | T/C (endpoint: median survival time, dose: 180.0 mg/kg/injection, schedule: Q01DX001 (sc), vehicle: other): 116 % of control | T/C (endpoint: median survival time, dose: 400.0 mg/kg/injection, schedule: Q01DX009 (ip), vehicle: sodium bicarbonate): 158 % of control
